Results reported in article PMC9655618 (Cancers, 2022).
Read-outs that look alike come from different tables or passages of the source.

What was measured:
[1] = test system: ERα-mediated transcription (3xERE-luciferase), T47D-KBluc cells; assay: ER-dependent transcriptional activity, 3xERE-luciferase reporter in T47D-KBluc cells; details: for effect on E2-induced luciferase activity: until dropping to 20% Emax
[2] = test system: T47D estrogen-depleted cells; assay: E2-induced proliferation of estrogen-depleted cells (AUC of growth kinetics); assay type: cell-based; details: for EC50: Homo sapiens, T47D, 240 h, read-out: AUC (%) EC50 (μM)
Description: To monitor long-term growth, human ER+ BC (T47-D, MCF-7, MCF-7/BUS), ER+ endometrial (Ishiwaka, High Point, NC, USA), or non-malignant breast (MCF-10A) cells were seeded at 3000–6000 cells per well. […] When indicated, cells were estrogen-deprived in a 10DCC-FBS supplemented medium for one week. […] Cytotoxicity was monitored by using YOYO-1 (Invitrogen, Waltham, MA, USA). Cell proliferation and cytotoxicity were monitored by sequential real-time microphotographs in an IncuCyte HD real-time imaging system (Essen BioScience, Hertfordshire, UK) for 5–10 days. The area under the curve (AUC) was then analyzed to know both the kinetics and dose-effect relationships. […] Next, cells were treated with VEH (0.05% DMSO) or test compounds for 5–10 days. Spheroid size and cell cytotoxicity were recorded with the Incucyte SX5 Live-Cell Analysis Instrument (Sartorius AG, Göttingen, Germany). To calculate the spheroid growth area, confluence measurements were taken considering the largest brightfield object area (µm^2). Cytotoxicity was monitored by using YOYO-1 (Essen Bioscience, Hertfordshire, UK).

[3] = test system: alkaline phosphatase (ALP) activity in Ishikawa cells; assay: Alkaline phosphatase assay; assay type: cell-based, human; details: E2 10 nM
Description: Human endometrium cells ([…]) were cultured in MEM without phenol red with Earle's Salts culture, which was supplemented with estrogen-deprived 10 DCC-FBS du-ring 5 days. […] Cells were washed with ice-cold PBS, and Alkaline Phosphatase (ALP) activity was measured by using ALP Assay Kit (Abcam, Cambridge, MA, USA). The substrate p-nitrophenyl phosphate (pNPP) and the ALP enzyme were used to detect ALP activity by the analysis of the optical density at 405 nm in the iMark microplate Reader (Bio-Rad, Irvine, CA, USA). […] Protein concentration was quantified with the bicinchoninic acid assay (BCA) kit (Bio-Rad).

SK-BR-3 cells = assay: MTT cell viability assay; assay type: cell-based, human; details: 10%FBS growth media
Description: (§1) Straightforward, the tetrazolium salt 3-(4,5-methyltiazol-2yl-)-2,5diphenyl-tetrazolium bromide (MTT) (Applichen, Darmstadt, Germany) was added to cells, incubated for 2–4 h at 37 °C, and lysed in 10% SDS.

Hs-578T cells = assay: MTT cell viability assay; assay type: cell-based, human; details: 72 h, 10%FBS growth media
Description: as §1

MCF-10A cells = assay: MTT cell viability assay; assay type: cell-based, human; details: 72 h, 10%FBS growth media
Description: as §1

MCF-7 cells = assay: MTT cell viability assay; assay type: cell-based, human; details: 10%FBS growth media
Description: as §1

Ishikawa cells = assay: MTT cell viability assay; assay type: cell-based, human; details: read-out: IC50 (μM) ISHIKAWA, 72 h, 10%FBS growth media
Description: as §1

MDA-MB-231 cells = assay: MTT cell viability assay; assay type: cell-based, human; details: 10%FBS growth media
Description: as §1

T47D cells = assay: MTT cell viability assay; assay type: cell-based, human; details: 72 h, 10%FBS growth media
Description: Straightforward, the tetrazolium salt 3-(4,5-methyltiazol-2yl-)-2,5diphenyl-tetrazolium bromide (MTT) (Applichen, Darmstadt, Germany) was added to cells, incubated for 2–4 h at 37 °C, and lysed in 10% SDS. The mitochondrial metabolization of the tetrazolium salt was determined by the analysis of the optical density at 595 nm, measured with the iMark microplate Reader (Bio–Rad, Irvine, CA, USA).

VERO cells = assay: MTT cell viability assay; assay type: cell-based, monkey; details: 72 h, 10%FBS growth media
Description: as §1

[4] = test system: glucocorticoid receptor (GR)-dependent transcriptional activity, MDA-kb2 cells; assay: GR-mediated transcription, luciferase reporter in MDA-kb2 cells (dexamethasone); details: DEX 100 nM
BT-549 cells = assay: MTT cell viability assay; assay type: cell-based, human; details: 10%FBS growth media
Description: as §1

MCF-7/BUS cells = assay: MTT cell viability assay; assay type: cell-based, human; details: 72 h, read-out: IC50 (μM) MCF-7/BUS
Description: as §1

[5] = test system: ERα, pS2 and PR mRNA in MCF-7 cells; assay: Quantitative real-time PCR of ERα-regulated genes; assay type: cell-based, human; details: 3 h pretreatment, E2 10 nM 24 h; 32 5 µM, 35 10 µM, ICI 0.1 µM, 4-OHTAM 1 µM
Description: (§2) For gene expression analysis, MCF-7 and Ishikawa cells were deprived of steroid hormones by using a 10DCC-FBS medium for five days. Then, 1,500,000 cells/dish were seeded in 5DCC-FBS, followed by treatment with test compounds. Total RNA was isolated by using TRItidy G™ (Panreac Applichem ITW Reagents, Darmstadt, Germany). The concentration and purity of RNA were determined with a NanoDrop 1000 spectrophotometer (Wilmington, NC, USA). Then, 1 µg of total RNA was reversed and amplified with the iScriptTM kit (Bio-Rad) following the manufacturer’s protocol. SYBR Green PCR Master mix (Applied Biosystems, Bedford, MA, USA) reagent and exon-specific primers for ERα were used for Real-time quantitative PCR (qPCR). Gene expression was analyzed with an Mx3005P qPCR System (Agilent, Santa Clara, CA, USA), and cycle threshold values were calculated using MxPro qPCR Software (Agilent, CA, USA). Target gene expression was normalized to the expression of the 18S housekeeping gene. Data were expressed as relative expression values according to the comparative CT method for qPCR [42].

[6] = test system: ERα, pS2 and PR mRNA in Ishikawa cells; assay: Quantitative real-time PCR of ERα-regulated genes; assay type: cell-based, human; details: 3 h pretreatment, E2 10 nM 24 h
Description: as §2

COc1ccc(C2(O)C=C(c3ccccc3)C(=O)N2Cc2ccccc2)cc1 (stereo not drawn) [compound 8, 1-benzyl-5-hydroxy-5-(4-methoxyphenyl)-3-phenyl-1H-pyrrol-2(5H)-one]
effect on E2-induced luciferase activity [1]: reduced E2-induced luciferase activity

C[C@]12CC[C@@H]3c4ccc(O)cc4CC[C@H]3[C@@H]1CC[C@@H]2O [E2, 17β-estradiol, reference compound]
EC50 [2]: 0.0071 nM | maximal activity (Emax) reached by E2 ([1]; E2+VEH): 104.90 ± 2.01% | EC50 ([1]; Homo sapiens, read-out: EC50 of E2, ER-dependent transcriptional activity, E2 alone (E2+VEH)): 4.48 ± 0.42 pM | Emax ([1]; Homo sapiens, read-out: maximal activity (Emax) reached by E2, E2+VEH): 99.8 ± 8.44% | maximal luciferase activity or Emax ([1]; induced by E2): 15.19 ± 1.71 fold induction | EC50 ([1]; read-out: EC50 of E2, ER-dependent transcriptional activity, E2 alone (E2+VEH)): 4.57 ± 0.42 pM | increase of ALP activity [3]: 30 fold

COc1ccc(N2C(=O)C(c3cccc([N+](=O)[O-])c3)=CC2(O)c2cccc(OC)c2)cc1 (stereo not drawn) [compound 38, 5-hydroxy-5-(3-methoxyphenyl)-1-(4-methoxyphenyl)-3-(3-nitrophenyl)-1H-pyrrol-2(5H)-one]
effect on E2-induced luciferase activity [1]: reduced E2-induced luciferase activity | IC50 (SK-BR-3 cells; Homo sapiens, SK-BR-3, 72 h): > 10 µM | IC50 (Hs-578T cells; Homo sapiens, Hs-578T): > 10 µM | IC50 (MCF-10A cells; Homo sapiens, MCF-10A): > 10 µM | IC50 (MCF-7 cells; Homo sapiens, MCF7, 72 h): > 10 µM | IC50 (Ishikawa cells; Homo sapiens, Ishikawa): > 10 µM | IC50 (MDA-MB-231 cells; Homo sapiens, MDA-MB-231, 72 h): > 10 µM | IC50 (T47D cells; Homo sapiens, T47D): > 10 µM | IC50 (VERO cells; Primates, Vero): > 25 µM

C[C@@H]1C[C@H]2[C@@H]3CCC4=CC(=O)C=C[C@]4(C)[C@@]3(F)[C@@H](O)C[C@]2(C)[C@@]1(O)C(=O)CO [DEX, dexamethasone, reference compound]
maximal luciferase activity or Emax [4]: 42.07 ± 14.33 fold induction

O=C1C(c2ccc3c(c2)OCO3)=CC(O)(c2ccccc2)N1Cc1ccccc1 (stereo not drawn) [compound 26, 3-(benzo[d][1,3]dioxol-5-yl)-1-benzyl-5-hydroxy-5-phenyl-1H-pyrrol-2(5H)-one]
effect on E2-induced luciferase activity [1]: reduced E2-induced luciferase activity | IC50 (SK-BR-3 cells; Homo sapiens, SK-BR-3, 72 h): > 10 µM | IC50 (Hs-578T cells; Homo sapiens, Hs-578T): > 10 µM | IC50 (MCF-7 cells; Homo sapiens, MCF7, 72 h): > 10 µM | IC50 (Ishikawa cells; Homo sapiens, Ishikawa): 10.1 ± 0.11 µM | IC50 (MDA-MB-231 cells; Homo sapiens, MDA-MB-231, 72 h): 9.71 ± 0.3 µM | IC50 (T47D cells; Homo sapiens, T47D): > 10 µM

COc1cccc(C2=CC(O)(c3ccc([N+](=O)[O-])cc3)N(Cc3ccccc3)C2=O)c1 (stereo not drawn) [compound 46, 1-benzyl-5-hydroxy-3-(3-methoxyphenyl)-5-(4-nitrophenyl)-1H-pyrrol-2(5H)-one]
effect on E2-induced luciferase activity [1]: reduced E2-induced luciferase activity

COc1ccc(N2C(=O)C(c3ccccc3)=CC2(O)c2ccc(OC)cc2)cc1 (stereo not drawn) [compound 9, 5-hydroxy-1,5-bis(4-methoxyphenyl)-3-phenyl-1H-pyrrol-2(5H)-one]
IC50 (SK-BR-3 cells; Homo sapiens, SK-BR-3, 72 h): > 10 µM | IC50 (Hs-578T cells; Homo sapiens, Hs-578T): > 10 µM | IC50 (BT-549 cells; Homo sapiens, BT-549, 72 h): > 10 µM | IC50 (MCF-7 cells; Homo sapiens, MCF7, 72 h): > 10 µM | IC50 (MCF-7/BUS cells; Homo sapiens, MCF7/BUS): > 10 µM | IC50 (MDA-MB-231 cells; Homo sapiens, MDA-MB-231, 72 h): > 10 µM | IC50 (T47D cells; Homo sapiens, T47D): > 10 µM

C[C@]12CC[C@@H]3c4ccc(O)cc4C[C@@H](CCCCCCCCC[S+]([O-])CCCC(F)(F)C(F)(F)F)[C@H]3[C@@H]1CC[C@@H]2O (stereo partly drawn) [ICI, ICI-182,780, reference compound]
IC50 ([2]; presence of E2 (0.1 nM), 10 days): 0.000283 µM | E/Emax (%) VEH ([1]; compounds 10 µM, 3 h pretreatment, then vehicle 16–24 h, relative to Emax of E2): −9.15 ± 3.99% | IC50 ([1]; read-out: IC50 (µM) on E2-induced luciferase activity, dose-response, 3 h pretreatment, then E2 0.1 nM 16–24 h): 0.00019 µM | IC50 ([1]; read-out: IC50 on E2-induced ER-dependent transcriptional activity, co-incubation with E2): 0.0002 ± 8e-05 µM | IC50 (SK-BR-3 cells; 72 h): > 50 µM | IC50 (Hs-578T cells): > 25 µM | IC50 (BT-549 cells; 72 h): > 25 µM | IC50 (MCF-10A cells): > 10 µM | IC50 (MCF-7 cells; 72 h): 0.52 ± 0.16 µM | IC50 (MCF-7/BUS cells; 10%FBS growth media, MTT): 0.0006 µM | IC50 (Ishikawa cells): > 10 µM | IC50 (MDA-MB-231 cells; 72 h): > 25 µM | IC50 (T47D cells): 14.9 ± 5.19 µM | effect on E2-induced mRNA expression [5]: blocked E2-induced mRNA levels of PR and pS2 | effect on E2-induced mRNA expression [6]: blocked E2-induced mRNA levels of PR and pS2 | IC50 (VERO cells): > 10 µM

O=C1C(c2ccccc2)=CC(O)(c2ccccc2)N1C1CCCCC1 (stereo not drawn) [compound 4, 1-cyclohexyl-5-hydroxy-3,5-diphenyl-1H-pyrrol-2(5H)-one]
effect on E2-induced luciferase activity [1]: reduced E2-induced luciferase activity | IC50 (SK-BR-3 cells; Homo sapiens, SK-BR-3, 72 h): > 10 µM | IC50 (Hs-578T cells; Homo sapiens, Hs-578T): > 10 µM | IC50 (MCF-10A cells; Homo sapiens, MCF-10A): 7.17 ± 2.07 µM | IC50 (MCF-7 cells; Homo sapiens, MCF7, 72 h): > 10 µM | IC50 (Ishikawa cells; Homo sapiens, Ishikawa): > 10 µM | IC50 (MDA-MB-231 cells; Homo sapiens, MDA-MB-231, 72 h): > 10 µM | IC50 (T47D cells; Homo sapiens, T47D): > 10 µM | IC50 (VERO cells; Primates, Vero): > 25 µM

COc1ccc(C2=CC(O)(c3ccccc3)N(C3CCCCC3)C2=O)cc1F (stereo not drawn) [compound 16, 1-cyclohexyl-3-(3-fluoro-4-methoxyphenyl)-5-hydroxy-5-phenyl-1H-pyrrol-2(5H)-one]
estrogenic effect on ER-dependent transcriptional activity ([1]; 10 μM, absence of E2): partial induction of ER-dependent transcriptional activity | IC50 (SK-BR-3 cells; Homo sapiens, SK-BR-3, 72 h): > 10 µM | IC50 (Hs-578T cells; Homo sapiens, Hs-578T): > 10 µM | IC50 (BT-549 cells; Homo sapiens, BT-549, 72 h): > 10 µM | IC50 (MCF-7 cells; Homo sapiens, MCF7, 72 h): > 10 µM | IC50 (MCF-7/BUS cells; Homo sapiens, MCF7/BUS): > 10 µM | IC50 (Ishikawa cells; Homo sapiens, Ishikawa): > 10 µM | IC50 (MDA-MB-231 cells; Homo sapiens, MDA-MB-231, 72 h): > 10 µM | IC50 (T47D cells; Homo sapiens, T47D): > 10 µM

COc1ccc(C2=CC(O)(c3cccc([N+](=O)[O-])c3)N(Cc3ccccc3)C2=O)cc1 (stereo not drawn) [compound 40, 1-benzyl-5-hydroxy-3-(4-methoxyphenyl)-5-(3-nitrophenyl)-1H-pyrrol-2(5H)-one]
effect on E2-induced luciferase activity [1]: reduced E2-induced luciferase activity

CCCc1c(-c2ccc(O)cc2)nn(-c2ccc(O)cc2)c1-c1ccc(O)cc1 [PPT, 1,3,5-tris(4-hydroxyphenyl)-4-propyl-1H-pyrazole, reference compound]
EC50 [2]: 0.157 nM

COc1ccc(N2C(=O)C(c3ccccc3OC)=CC2(O)c2ccc([N+](=O)[O-])cc2)cc1 (stereo not drawn) [compound 50, 5-hydroxy-3-(2-methoxyphenyl)-1-(4-methoxyphenyl)-5-(4-nitrophenyl)-1H-pyrrol-2(5H)-one]
effect on E2-induced luciferase activity [1]: reduced E2-induced luciferase activity | IC50 (SK-BR-3 cells; Homo sapiens, SK-BR-3, 72 h): > 10 µM | IC50 (MCF-7 cells; Homo sapiens, MCF7, 72 h): 6.17 ± 2.66 µM
